Assay results from publication PMC3954831, “Protection of Cardiomyocytes from the Hypoxia-Mediated Injury by a Peptide Targeting the Activator of G-Protein Signaling 8” (PLoS ONE, 2014).

Assays:
[1] = system: cardiomyocytes; test: MTT assay, viability of cardiomyocytes; format: cell-based, Wistar rat
Experimental: Cardiomyocytes in 24-well culture plates were incubated in PBS (pH 7.4) containing 0.5 mg/ml MTT at 37°C. After for 2 h incubation, the PBS was removed and 100 µl of dimethyl sulfoxide (DMSO) was added to each well to solubilize dark blue formazan products. Absorbance of the colored solution was determined at 595 nm.
Here, we first examined the influence of the AGS8-peptide and gallein on the viability of cells. Cardiomyocytes were incubated with gallein for 24 h, and their viability was determined by MTT assay.
Figure 7 Effect of AGS8-peptide or Gallein on the viability of cardiomyocytes determined by MTT assay. Neonatal cardiomyocytes were cultured for 24-peptide or Gallein. […] N = 5 from 5 independent experiments.

[2] = system: connexin 43 (CX43) of cultured cardiomyocytes; details: gallein 100 µM; ref [13]; cited from earlier work
Source text: Gallein is an inhibitor of Gβγ-mediated signaling that occupies a “common” interaction surface of Gβγ and inhibits the interaction of Gβγ-regulated proteins with Gβγ [25]. Thus, gallein is expected to block a wide range of Gβγ signals in cells, including CX43 regulation mediated by AGS-Gβγ. We previously demonst ...

O=C1OC2(c3ccccc31)c1ccc(O)c(O)c1Oc1c2ccc(O)c1O [gallein]
cytotoxicity / viability of cardiomyocytes ([1]; MTT assay, 1 µM, 24 h, N = 5 independent experiments): caused damage in the cardiomyocytes
cytotoxicity under normoxia ([1]; normoxia): produced deleterious effects
inhibition of hypoxia-induced internalization of CX43 [2]: completely inhibits hypoxia-induced internalization of CX43
